Assay results from paper PMC6009956, “Design, synthesis and biological activity of N^4-phenylsubstituted-7H-pyrrolo[2,3-d]pyrimidin-4-amines as dual inhibitors of aurora kinase A and epidermal growth factor receptor kinase” (Journal of Enzyme Inhibition and Medicinal Chemistry, 2017).
Where two headings read alike, the source gives them in different places. Each block holds one compound with its values, some of them ahead of it.

Experiments:
aurora A kinase (AURKA) = target: T1, aurora A kinase (AURKA) (Homo sapiens, UniProt O14965); assay: ADP-Glo kinase assay, Aurora A; type: biochemical
T1 construct: purchased BPS Bioscience (assay run externally by the vendor)
T1 sequence (O14965 1-403): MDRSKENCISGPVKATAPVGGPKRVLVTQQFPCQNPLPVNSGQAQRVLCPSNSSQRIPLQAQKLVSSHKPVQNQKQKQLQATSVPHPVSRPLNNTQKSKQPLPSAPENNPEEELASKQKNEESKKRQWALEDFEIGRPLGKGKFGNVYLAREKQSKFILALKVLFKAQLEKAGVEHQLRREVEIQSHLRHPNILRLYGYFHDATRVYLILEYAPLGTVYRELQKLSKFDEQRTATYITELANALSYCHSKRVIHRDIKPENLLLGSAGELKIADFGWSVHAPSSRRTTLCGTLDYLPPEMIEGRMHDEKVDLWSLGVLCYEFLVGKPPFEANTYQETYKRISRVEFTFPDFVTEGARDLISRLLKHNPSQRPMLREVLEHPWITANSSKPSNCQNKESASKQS

EGFR = EGFR (Homo sapiens, UniProt P00533); assay: ADP-Glo kinase assay, EGFR; type: biochemical; design: purchased BPS Bioscience (assay run externally by the vendor)
Chain of EGFR (P00533 25-1210): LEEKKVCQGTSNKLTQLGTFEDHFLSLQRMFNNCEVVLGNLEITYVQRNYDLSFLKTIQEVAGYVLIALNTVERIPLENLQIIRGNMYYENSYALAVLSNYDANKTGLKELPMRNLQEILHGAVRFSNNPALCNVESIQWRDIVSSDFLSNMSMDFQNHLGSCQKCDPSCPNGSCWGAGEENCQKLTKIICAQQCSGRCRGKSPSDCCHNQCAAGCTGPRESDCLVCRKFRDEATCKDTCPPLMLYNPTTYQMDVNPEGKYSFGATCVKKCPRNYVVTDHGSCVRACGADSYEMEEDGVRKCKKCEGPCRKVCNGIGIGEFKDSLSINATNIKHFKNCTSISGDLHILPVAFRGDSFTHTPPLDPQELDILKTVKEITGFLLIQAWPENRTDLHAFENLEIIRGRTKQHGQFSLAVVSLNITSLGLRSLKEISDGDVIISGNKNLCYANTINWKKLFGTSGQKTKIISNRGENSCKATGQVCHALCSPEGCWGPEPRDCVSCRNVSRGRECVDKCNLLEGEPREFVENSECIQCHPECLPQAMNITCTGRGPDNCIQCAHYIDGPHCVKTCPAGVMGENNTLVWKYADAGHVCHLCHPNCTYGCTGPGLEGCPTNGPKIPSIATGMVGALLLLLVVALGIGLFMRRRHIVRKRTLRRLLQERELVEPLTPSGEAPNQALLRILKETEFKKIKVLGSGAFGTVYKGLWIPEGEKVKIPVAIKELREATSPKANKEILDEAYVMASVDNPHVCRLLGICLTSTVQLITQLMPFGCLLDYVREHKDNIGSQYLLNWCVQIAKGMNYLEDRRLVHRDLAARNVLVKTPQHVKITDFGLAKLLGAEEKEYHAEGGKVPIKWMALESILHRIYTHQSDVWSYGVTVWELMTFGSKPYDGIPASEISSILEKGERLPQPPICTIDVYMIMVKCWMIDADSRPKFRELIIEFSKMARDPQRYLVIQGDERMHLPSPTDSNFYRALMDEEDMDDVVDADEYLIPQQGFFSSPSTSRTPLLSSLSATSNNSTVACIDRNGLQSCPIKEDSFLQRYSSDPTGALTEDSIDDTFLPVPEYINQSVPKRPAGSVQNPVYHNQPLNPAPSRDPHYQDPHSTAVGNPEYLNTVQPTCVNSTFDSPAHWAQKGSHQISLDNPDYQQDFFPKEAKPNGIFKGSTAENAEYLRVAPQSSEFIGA

[1] = 10 µM ATP, triplicate, read-out: AURKA IC50 ± SD
[2] = 10 µM ATP/0.2 mg/ml Kemptide, read-out: Aurora A IC50 (dose-response curve, supplement)
[3] = 10 µM ATP, triplicate, read-out: EGFR IC50 ± SD
[4] = 10 µM ATP/0.2 mg/ml Poly-Glu-Tyr, read-out: EGFR IC50 (dose-response curve, supplement)

IC50 (aurora A kinase (AURKA); [1]): 5580 ± 660 nM
IC50 (aurora A kinase (AURKA); [2]): 5600 nM
Aurora A % Activity Set1 (aurora A kinase (AURKA); Log[nM] 0): 91%
Aurora A % Activity Set2 (aurora A kinase (AURKA); Log[nM] 0): 91%
Aurora A % Activity Set3 (aurora A kinase (AURKA); Log[nM] 0): 92%
Aurora A % Activity Set1 (aurora A kinase (AURKA); Log[nM] 1.0): 87%
Aurora A % Activity Set2 (aurora A kinase (AURKA); Log[nM] 1.0): 90%
Aurora A % Activity Set3 (aurora A kinase (AURKA); Log[nM] 1.0): 91%
Aurora A % Activity Set1 (aurora A kinase (AURKA); Log[nM] 1.5): 93%
Aurora A % Activity Set2 (aurora A kinase (AURKA); Log[nM] 1.5): 98%
Aurora A % Activity Set3 (aurora A kinase (AURKA); Log[nM] 1.5): 100%
Aurora A % Activity Set1 (aurora A kinase (AURKA); Log[nM] 2.0): 96%
Aurora A % Activity Set2 (aurora A kinase (AURKA); Log[nM] 2.0): 97%
Aurora A % Activity Set3 (aurora A kinase (AURKA); Log[nM] 2.0): 100%
Aurora A % Activity Set1 (aurora A kinase (AURKA); Log[nM] 2.5): 99%
Aurora A % Activity Set2 (aurora A kinase (AURKA); Log[nM] 2.5): 103%
Aurora A % Activity Set3 (aurora A kinase (AURKA); Log[nM] 2.5): 104%
Aurora A % Activity Set1 (aurora A kinase (AURKA); Log[nM] 3.0): 86%
Aurora A % Activity Set2 (aurora A kinase (AURKA); Log[nM] 3.0): 90%
Aurora A % Activity Set3 (aurora A kinase (AURKA); Log[nM] 3.0): 93%
Aurora A % Activity Set1 (aurora A kinase (AURKA); Log[nM] 3.5): 63%
Aurora A % Activity Set2 (aurora A kinase (AURKA); Log[nM] 3.5): 70%
Aurora A % Activity Set3 (aurora A kinase (AURKA); Log[nM] 3.5): 70%
Aurora A % Activity Set1 (aurora A kinase (AURKA); Log[nM] 4.0): 28%
Aurora A % Activity Set2 (aurora A kinase (AURKA); Log[nM] 4.0): 31%
Aurora A % Activity Set3 (aurora A kinase (AURKA); Log[nM] 4.0): 32%
Aurora A % Activity Set1 (aurora A kinase (AURKA); Log[nM] 4.5): 11%
Aurora A % Activity Set2 (aurora A kinase (AURKA); Log[nM] 4.5): 12%
Aurora A % Activity Set3 (aurora A kinase (AURKA); Log[nM] 4.5): 13%
Aurora A % Activity Set1 (aurora A kinase (AURKA); Log[nM] 5.0): 5%
Aurora A % Activity Set2 (aurora A kinase (AURKA); Log[nM] 5.0): 5%
Aurora A % Activity Set3 (aurora A kinase (AURKA); Log[nM] 5.0): 5%
IC50 (EGFR; [3]): 254 ± 26 nM
IC50 (EGFR; [4]): 253 nM
EGFR % Activity Set1 (EGFR; Log[nM] 0): 103%
EGFR % Activity Set2 (EGFR; Log[nM] 0): 98%
EGFR % Activity Set3 (EGFR; Log[nM] 0): 103%
EGFR % Activity Set1 (EGFR; Log[nM] 1.0): 101%
EGFR % Activity Set2 (EGFR; Log[nM] 1.0): 110%
EGFR % Activity Set3 (EGFR; Log[nM] 1.0): 106%
EGFR % Activity Set1 (EGFR; Log[nM] 1.5): 92%
EGFR % Activity Set2 (EGFR; Log[nM] 1.5): 91%
EGFR % Activity Set3 (EGFR; Log[nM] 1.5): 94%
EGFR % Activity Set1 (EGFR; Log[nM] 2.0): 66%
EGFR % Activity Set2 (EGFR; Log[nM] 2.0): 71%
EGFR % Activity Set3 (EGFR; Log[nM] 2.0): 76%
EGFR % Activity Set1 (EGFR; Log[nM] 2.5): 39%
EGFR % Activity Set2 (EGFR; Log[nM] 2.5): 42%
EGFR % Activity Set3 (EGFR; Log[nM] 2.5): 40%
EGFR % Activity Set1 (EGFR; Log[nM] 3.0): 24%
EGFR % Activity Set2 (EGFR; Log[nM] 3.0): 22%
EGFR % Activity Set3 (EGFR; Log[nM] 3.0): 22%
EGFR % Activity Set1 (EGFR; Log[nM] 3.5): 9%
EGFR % Activity Set2 (EGFR; Log[nM] 3.5): 9%
EGFR % Activity Set3 (EGFR; Log[nM] 3.5): 9%
EGFR % Activity Set1 (EGFR; Log[nM] 4.0): 4%
EGFR % Activity Set2 (EGFR; Log[nM] 4.0): 5%
EGFR % Activity Set3 (EGFR; Log[nM] 4.0): 5%
EGFR % Activity Set1 (EGFR; Log[nM] 4.5): 2%
EGFR % Activity Set2 (EGFR; Log[nM] 4.5): 2%
EGFR % Activity Set3 (EGFR; Log[nM] 4.5): 2%
EGFR % Activity Set1 (EGFR; Log[nM] 5.0): 1%
EGFR % Activity Set2 (EGFR; Log[nM] 5.0): 1%
EGFR % Activity Set3 (EGFR; Log[nM] 5.0): 1%
SMILES: c1ccc(Nc2ncnc3[nH]ccc23)cc1 [Compound 1, N^4-phenyl-7H-pyrrolo[2,3-d]pyrimidine-4-amine]

IC50 (aurora A kinase (AURKA); [1]): 3730 ± 120 nM
IC50 (aurora A kinase (AURKA); [2]): 3700 nM
Aurora A % Activity Set1 (aurora A kinase (AURKA); Log[nM] 0): 98%
Aurora A % Activity Set2 (aurora A kinase (AURKA); Log[nM] 0): 87%
Aurora A % Activity Set3 (aurora A kinase (AURKA); Log[nM] 0): 96%
Aurora A % Activity Set1 (aurora A kinase (AURKA); Log[nM] 1.0): 97%
Aurora A % Activity Set2 (aurora A kinase (AURKA); Log[nM] 1.0): 94%
Aurora A % Activity Set3 (aurora A kinase (AURKA); Log[nM] 1.0): 94%
Aurora A % Activity Set1 (aurora A kinase (AURKA); Log[nM] 1.5): 100%
Aurora A % Activity Set2 (aurora A kinase (AURKA); Log[nM] 1.5): 95%
Aurora A % Activity Set3 (aurora A kinase (AURKA); Log[nM] 1.5): 95%
Aurora A % Activity Set1 (aurora A kinase (AURKA); Log[nM] 2.0): 102%
Aurora A % Activity Set2 (aurora A kinase (AURKA); Log[nM] 2.0): 97%
Aurora A % Activity Set3 (aurora A kinase (AURKA); Log[nM] 2.0): 101%
Aurora A % Activity Set1 (aurora A kinase (AURKA); Log[nM] 2.5): 100%
Aurora A % Activity Set2 (aurora A kinase (AURKA); Log[nM] 2.5): 93%
Aurora A % Activity Set3 (aurora A kinase (AURKA); Log[nM] 2.5): 98%
Aurora A % Activity Set1 (aurora A kinase (AURKA); Log[nM] 3.0): 82%
Aurora A % Activity Set2 (aurora A kinase (AURKA); Log[nM] 3.0): 83%
Aurora A % Activity Set3 (aurora A kinase (AURKA); Log[nM] 3.0): 82%
Aurora A % Activity Set1 (aurora A kinase (AURKA); Log[nM] 3.5): 60%
Aurora A % Activity Set2 (aurora A kinase (AURKA); Log[nM] 3.5): 55%
Aurora A % Activity Set3 (aurora A kinase (AURKA); Log[nM] 3.5): 53%
Aurora A % Activity Set1 (aurora A kinase (AURKA); Log[nM] 4.0): 20%
Aurora A % Activity Set2 (aurora A kinase (AURKA); Log[nM] 4.0): 19%
Aurora A % Activity Set3 (aurora A kinase (AURKA); Log[nM] 4.0): 20%
Aurora A % Activity Set1 (aurora A kinase (AURKA); Log[nM] 4.5): 9%
Aurora A % Activity Set2 (aurora A kinase (AURKA); Log[nM] 4.5): 9%
Aurora A % Activity Set3 (aurora A kinase (AURKA); Log[nM] 4.5): 9%
Aurora A % Activity Set1 (aurora A kinase (AURKA); Log[nM] 5.0): 10%
Aurora A % Activity Set2 (aurora A kinase (AURKA); Log[nM] 5.0): 10%
Aurora A % Activity Set3 (aurora A kinase (AURKA); Log[nM] 5.0): 9%
IC50 (EGFR; [3]): 125 ± 16.4 nM
IC50 (EGFR; [4]): 125 nM
EGFR % Activity Set1 (EGFR; Log[nM] 0): 90%
EGFR % Activity Set2 (EGFR; Log[nM] 0): 96%
EGFR % Activity Set3 (EGFR; Log[nM] 0): 103%
EGFR % Activity Set1 (EGFR; Log[nM] 1.0): 97%
EGFR % Activity Set2 (EGFR; Log[nM] 1.0): 90%
EGFR % Activity Set3 (EGFR; Log[nM] 1.0): 97%
EGFR % Activity Set1 (EGFR; Log[nM] 1.5): 78%
EGFR % Activity Set2 (EGFR; Log[nM] 1.5): 82%
EGFR % Activity Set3 (EGFR; Log[nM] 1.5): 80%
EGFR % Activity Set1 (EGFR; Log[nM] 2.0): 53%
EGFR % Activity Set2 (EGFR; Log[nM] 2.0): 56%
EGFR % Activity Set3 (EGFR; Log[nM] 2.0): 51%
EGFR % Activity Set1 (EGFR; Log[nM] 2.5): 30%
EGFR % Activity Set2 (EGFR; Log[nM] 2.5): 29%
EGFR % Activity Set3 (EGFR; Log[nM] 2.5): 28%
EGFR % Activity Set1 (EGFR; Log[nM] 3.0): 14%
EGFR % Activity Set2 (EGFR; Log[nM] 3.0): 12%
EGFR % Activity Set3 (EGFR; Log[nM] 3.0): 12%
EGFR % Activity Set1 (EGFR; Log[nM] 3.5): 6%
EGFR % Activity Set2 (EGFR; Log[nM] 3.5): 5%
EGFR % Activity Set3 (EGFR; Log[nM] 3.5): 5%
EGFR % Activity Set1 (EGFR; Log[nM] 4.0): 2%
EGFR % Activity Set2 (EGFR; Log[nM] 4.0): 2%
EGFR % Activity Set3 (EGFR; Log[nM] 4.0): 2%
EGFR % Activity Set1 (EGFR; Log[nM] 4.5): 1%
EGFR % Activity Set2 (EGFR; Log[nM] 4.5): 1%
EGFR % Activity Set3 (EGFR; Log[nM] 4.5): 1%
EGFR % Activity Set1 (EGFR; Log[nM] 5.0): 1%
EGFR % Activity Set2 (EGFR; Log[nM] 5.0): 1%
EGFR % Activity Set3 (EGFR; Log[nM] 5.0): 1%
SMILES: Brc1ccc(Nc2ncnc3[nH]ccc23)cc1 [Compound 10, N^4-(4-bromophenyl)-7H-pyrrolo[2,3-d]pyrimidin-4-amine]
